Data from US9801850B2, “Antibacterial agent” (OSAKA UNIVERSITY, priority 2009, dated 2017).
Converted amounts (≈) assume the structure as drawn.

Assays:
[1] = system: Methicillin-susceptible Staphylococcus aureus (MSSA) NCTC8325; assay: MIC, broth microdilution (Example 1); assay type: cell-based; settings: MH-broth, 37° C., 18 hours
Description: (§1) Methicillin-susceptible Staphylococcus aureus (MSSA) NCTC8325 and methicillin-resistant Staphylococcus aureus (MRSA) ATCC43300 were used as bacteria. The bacteria of each type were cultured using Mueller-Hinton Broth (MH-broth, Difco) as a medium. Then, the minimum inhibitory concentration (MIC) of each of the EGCG derivatives was measured by a broth microdilution method in accordance with the Clinical and Laboratory Standards Institute (CLSI) guidelines (hereinafter the same).
(§2) First, each of the EGCG derivatives was dissolved in 100% dimethyl sulfoxide (DMSO, Wako Pure Chemical Industries, Ltd.) so that the concentration thereof became 5120 μg/ml. The resultant solution was diluted with DMSO or sterile distilled water so as to prepare two-fold dilution series of antibacterial agent solutions. […] Each of these antibacterial agent solutions was dispensed to wells of a 96-well plate. The concentration of the EGCG derivative in the antibacterial agent solution dispensed to the wells was set to be 10 times as high as the final concentration. On the other hand, the bacteria were cultured in the MH-broth at 37° C. overnight, and the thus-obtained pre-culture solution was diluted with a new MH-broth so that the concentration thereof in the MH-broth became 10^−4 (10^4-fold dilution), thus preparing a bacterial culture solution of about 1×10^5 CFU/ml (CFU: Colony Forming Unit, the number of viable cells). The bacterial culture solution was further added to each well, and the mixture was cultured at 37° C. for 18 hours. The ratio (volume ratio) between the antibacterial agent solution and the bacterial culture solution added to each well was set to 1:9 (the antibacterial agent solution:the bacterial culture solution), and the volume of the mixture of them per well was set to 100 μl in total. The final concentration of the EGCG derivative in the mixture was set to 8 μg/ml to 512 μg/ml, and the number of viable cells in the mixture was set to about 1×10^5 CFU/ml. Then, after the completion of the culture, the MIC was determined. Also, the turbidity (OD600 nm) was measured using a plate reader so as to identify minor differences.
(§3) As Comparative Example 1, the same procedures as in Example 1 were performed, except that unsubstituted EGCG was used as an antibacterial agent instead of the EGCG derivatives of Example 1. Furthermore, as a control, the same procedures as in Example 1 were performed, except that sterile distilled water, 100% DMSO, or 50% DMSO was used instead of the antibacterial agent solutions containing the EGCG derivatives.

[2] = system: methicillin-resistant Staphylococcus aureus (MRSA) ATCC43300; assay: MIC, broth microdilution (Example 1); assay type: cell-based; settings: for MIC: MRSA ATCC43300, MH-broth, 37° C., 18 hours
Description: as §1, §2, §3

MSSA ATCC25923 [3] = assay: MIC with addition of PG, LPS or D-Ala-D-Ala (Example 3); assay type: cell-based, Staphylococcus aureus; settings: for MIC: MSSA (ATCC25923); for change in MIC by the addition of PG: MSSA ATCC25923, PG 30 μg/ml
Description: (§4) Regarding EGCG-C16, whether or not the antibacterial action thereof against MSSA and MRSA is inhibited by the addition of: peptidoglycan (PG) or D-Ala-D-Ala, which are each a cell wall component; or lipopolysaccharide (LPS), which is an outer membrane component, was examined. The MIC measurement was carried out in the manner described in Section (2) of Example 2.
(§5) In Example 3, EGCG-C16 prepared in Example 1 was used as an antibacterial agent. In Comparative Example 3, unsubstituted EGCG was used as an antibacterial agent. […] Antibacterial agent solutions of EGCG-C16 and EGCG were prepared in the same manner as described in Section (2) of Example 1. Antibacterial agent solutions of the antibacterial agents other than EGCG-C16 and EGCG were prepared by dissolving them in PBS.
(§6) As additives, PG (Peptidoglycan Staphylococcus aureus, SIGMA-ALDRICH), D-Ala-D-Ala (SIGMA-ALDRICH), and LPS (Lipopolysaccharide Salmonella, SIGMA-ALDRICH) were provided. Each of the additives was dissolved in PBS, and the resultant solution was used as an additive solution.
(§7) Dilution series of the antibacterial agent solutions were prepared. Each of them was dispensed to a 96-well plate. Further, the additive solution was added thereto and mixed. After that, a bacterial culture solution of MRSA ATCC43300 or MSSA ATCC25923 was added thereto and cultured at 37° C. for 18 hours. In the mixture of the antibacterial agent solution, the additive solution, and the bacterial culture solution, the final concentrations of PG, D-Ala-D-Ala, and LPS were each set to 30 μg/ml. Unless otherwise stated, the minimum inhibitory concentration (MIC) was calculated in the same manner as described in Section (2) of Example 2.

MRSA ATCC43300 [4] = assay: as above; assay type: cell-based, Staphylococcus aureus; settings: for MIC: MRSA (ATCC43300); for change in MIC by the addition of PG: MRSA ATCC43300, PG 30 μg/ml
Description: as §4, §5, §6, §7

MSSA ATCC25923 [5] = assay: Membrane damaging properties, SYTOX Green fluorescence (Example 4); assay type: cell-based, Staphylococcus aureus; settings: 37° C., 15 minutes, EGCG derivative 4-32, EGCG 8-128, NISIN 1-8 μg/ml, FIG. 3
Description: (§8) As an antibacterial agent, the EGCG-C16 prepared in Example 1 was used in Example 4; EGCG was used in Comparative Example 4; and membrane-damaging peptide NISIN (MP Biomedicals) was used in a reference example. Antibacterial agent solutions of EGCG-C16 and EGCG were prepared by dissolving them in DMSO so as to achieve top concentrations, respectively. An antibacterial agent solution of the other antibacterial agent was prepared by dissolving it in PBS and diluted with PBS as appropriate. The influence of DMSO used for dissolving the antibacterial agents also was considered.
MSSA ATCC25923 and MRSA ATCC43300 were subjected to shaking culture in MH-broths (Difco) until they reached a late stage in the exponential growth phase. The thus-obtained culture solutions were each centrifuged at 7000 rpm for 10 minutes, and bacterial cells that had settled were suspended in PBS. The suspension of the bacterial cells was added to wells of a 384 black plate, and each of the antibacterial agent solutions was further added thereto and mixed. The resultant mixture was incubated at 37° C. for 15 minutes. Subsequently, a dead cell-staining dye (trade name “SYTOX Green”, LONZA) was mixed in each well so that the concentration thereof became 10 μmol/l, and the resultant mixture was incubated at 37° C. for 10 minutes. […] On the other hand, as a control, the fluorescence intensity was measured in the same manner, except that PBS or 10% DMSO was added instead of the antibacterial agent solutions. Then, regarding each of the MSSA and MRSA, the ratio of the fluorescence intensity when each of the agents was added was calculated assuming that the fluorescence intensity obtained in the control (PBS) was 1.

MRSA ATCC43300 [6] = assay: as above; assay type: cell-based, Staphylococcus aureus; settings: 37° C., 15 minutes, EGCG derivative 4-32, EGCG 8-128, NISIN 1-8 μg/ml, FIG. 3
Description: as §8
MSSA ATCC25923 and MRSA ATCC43300 were subjected to shaking culture in MH-broths (Difco) until they reached a late stage in the exponential growth phase. The thus-obtained culture solutions were each centrifuged at 7000 rpm for 10 minutes, and bacterial cells that had settled were suspended in PBS. The suspension of the bacterial cells was added to wells of a 384 black plate, and each of the antibacterial agent solutions was further added thereto and mixed. The resultant mixture was incubated at 37° C. for 15 minutes. Subsequently, a dead cell-staining dye (trade name “SYTOX Green”, LONZA) was mixed in each well so that the concentration thereof became 10 μmol/l, and the resultant mixture was incubated at 37° C. for 10 minutes. The final concentrations of the respective antibacterial agents were as follows: 4, 8, 16, and 32 μg/ml for the EGCG derivative; 8, 16, 32, 64, and 128 μg/ml for EGCG; and 1, 2, 4, and 8 μg/ml for NISIN. […] On the other hand, as a control, the fluorescence intensity was measured in the same manner, except that PBS or 10% DMSO was added instead of the antibacterial agent solutions. Then, regarding each of the MSSA and MRSA, the ratio of the fluorescence intensity when each of the agents was added was calculated assuming that the fluorescence intensity obtained in the control (PBS) was 1.

[7] = +D-Ala-D-Ala (30 μg/mL), lower part of Table 9
[8] = +LPS (30 μg/mL), upper part of Table 9
[9] = +PG (30 μg/mL), lower part of Table 9 (PG/D-Ala-D-Ala series)
[10] = +PG (30 μg/mL), upper part of Table 9 (PG/LPS series)
[11] = MH-broth free of additives, lower part of Table 9 (PG/D-Ala-D-Ala series)
[12] = MH-broth free of additives, upper part of Table 9 (PG/LPS series)

Compound	MIC (MSSA ATCC25923 [3]; [7]) [µg/mL]	MIC (MSSA ATCC25923 [3]; [8]) [µg/mL]	MIC (MSSA ATCC25923 [3]; [9]) [µg/mL]	MIC (MSSA ATCC25923 [3]; [11]) [µg/mL]	MIC (MSSA ATCC25923 [3]; [12]) [µg/mL]	MIC (MRSA ATCC43300 [4]; [7]) [µg/mL]	MIC (MRSA ATCC43300 [4]; [8]) [µg/mL]	MIC (MRSA ATCC43300 [4]; [9]) [µg/mL]	MIC (MRSA ATCC43300 [4]; [10]) [µg/mL]	MIC (MRSA ATCC43300 [4]; [11]) [µg/mL]	MIC (MRSA ATCC43300 [4]; [12]) [µg/mL]	other results
EGCG-octanonate [EGCG-C8]												MIC [1]: 8 µg/mL
EGCG-laurate [EGCG-C12]												MIC [2]: 16 µg/mL; inhibition of propagation (MIC, turbidity OD600 nm) ([2]; MRSA, FIG. 1 and Table 3): remarkable propagation-inhibiting effect; MIC [1]: 8 µg/mL
teicoplanin	32	1	2	1	1	16	1	1	1	0.5	0.5	MIC (MSSA ATCC25923 [3]; [10]): 2 µg/mL; change in MIC by the addition of PG (MSSA ATCC25923 [3]): doubled; change in MIC by the addition of PG (MRSA ATCC43300 [4]): doubled
NISIN [reference compound]												fluorescence intensity ratio of SYTOX Green (control PBS = 1) (MSSA ATCC25923 [5]): very high fluorescence intensity ratio; fluorescence intensity ratio of SYTOX Green (control PBS = 1) (MRSA ATCC43300 [6]): very high fluorescence intensity ratio
EGCG-eicosanoate [EGCG-C20]												MIC [2]: 128 µg/mL
CN[C@H](CC(C)C)C(=O)N[C@H]1C(=O)N[C@@H](CC(N)=O)C(=O)N[C@H]2C(=O)N[C@H]3C(=O)N[C@H](C(=O)N[C@H](C(=O)O)c4cc(O)cc(O)c4-c4cc3ccc4O)[C@H](O)c3ccc(c(Cl)c3)Oc3cc2cc(c3O[C@@H]2O[C@H](CO)[C@@H](O)[C@H](O)[C@H]2O[C@H]2C[C@](C)(N)[C@H](O)[C@H](C)O2)Oc2ccc(cc2Cl)[C@H]1O [VCM, vancomycin]	16 (≈ 11 µM)	2 (≈ 1.38 µM)	2 (≈ 1.38 µM)	1 (≈ 0.69 µM)	2 (≈ 1.38 µM)	16 (≈ 11 µM)	2 (≈ 1.38 µM)	2 (≈ 1.38 µM)	4 (≈ 2.76 µM)	1 (≈ 0.69 µM)	2 (≈ 1.38 µM)	MIC (MSSA ATCC25923 [3]; [10]): 4 µg/mL (≈ 2.76 µM); change in MIC by the addition of PG (MSSA ATCC25923 [3]): doubled; change in MIC by the addition of PG (MRSA ATCC43300 [4]): doubled
CC1(C)S[C@@H]2[C@H](NC(=O)[C@H](N)c3ccccc3)C(=O)N2[C@H]1C(=O)O [ABPC, ampicillin]	0.25 (≈ 0.715 µM)	0.25 (≈ 0.715 µM)	0.25 (≈ 0.715 µM)	0.25 (≈ 0.715 µM)	0.25 (≈ 0.715 µM)	16 (≈ 45.8 µM)	32 (≈ 91.6 µM)	8 (≈ 22.9 µM)	32 (≈ 91.6 µM)	16 (≈ 45.8 µM)	32 (≈ 91.6 µM)	
